# According to patent publication US8372848B2, “Melanin-concentrating hormone receptor antagonists and methods of use” (Mixture Sciences, Inc., priority 2004, dated 2013):
# “Also recorded” adds a separate entry of the source.
# Key:
# rat MCH1R = rat MCH1R (Rattus norvegicus, UniProt P97639); assay: [125I] MCH binding to membrane fractions of MCH1R expressing HEK-293T
# Description: Cell pellet was homogenized with ice-cold 50 mM Tris-HCl buffer (pH 7.4) containing 5 mM EDTA, and ultra-centrifuged twice at 48,000×g for 20 min at 4° C. The pellets were then suspended in 50 mM Tris-HCl (pH 7.4) buffer containing 5 mM EDTA and used as membrane fractions. […] The radioactivity retained in the filters was determined with a γ-counter. IC50 values calculated as described above are expressed as the mean +S.E.M. for three independent determinations. DNA was mixed with LipofectAMINE transfection reagents (Life Technologies, MD), and the mixture was diluted with Opti-MEM and added to 60-70% confluent HEK 293T cells plated on 100-mm dishes. The transfected cells were cultured in DMEM containing 10% FBS.
# neuropeptide Y2 = target: T1, neuropeptide Y2 (Homo sapiens, UniProt P49146); assay: Selectivity versus neuropeptide Y2; type: cell-based
# T1 sequence (P49146 1-381): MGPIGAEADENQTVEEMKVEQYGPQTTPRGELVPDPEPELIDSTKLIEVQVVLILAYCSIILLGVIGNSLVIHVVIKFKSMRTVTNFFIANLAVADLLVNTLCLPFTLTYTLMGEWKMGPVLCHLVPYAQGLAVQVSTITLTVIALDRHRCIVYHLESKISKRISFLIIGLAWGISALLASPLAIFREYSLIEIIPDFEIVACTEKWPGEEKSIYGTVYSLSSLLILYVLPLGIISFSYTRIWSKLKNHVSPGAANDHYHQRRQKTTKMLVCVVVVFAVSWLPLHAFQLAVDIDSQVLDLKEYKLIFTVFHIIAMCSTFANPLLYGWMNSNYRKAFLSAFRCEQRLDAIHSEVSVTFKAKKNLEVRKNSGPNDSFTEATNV
# rats [1] = assay: MCH-induced food intake after icv administration; type: in vivo, rat
# Description: To determine inhibitory effects of TPI 1361-17 on MCH-induced food intake, rats were habituated to a wire bottom cage for more than 3 weeks prior to the experiment. Experiments were carried out from 6 a.m. to 7 a.m. when rats were satiated. […] On the other hand, five nmol of TPI 1361-17 suppressed cumulative food intake by 75% even at 4h (FIG. 5B).
# To determine the effects of TPI 1361-17 on MCH-induced food intake, rats were randomly divided into three groups: 1) TPI 1361-17 (dissolved in DMSO) and 2 nmol of MCH; 2) MCH 2 nmol, 3) ACSF. Each mixture contained a DMSO equivalent concentration to that of the antagonist solution (up to 5% (v/v)). Ten μl of each solution was administered into lateral ventricle for 2 minutes. The injections were done between 7:00-8:00 a.m., and food intake was monitored for 4 h after the injection.
# For animal studies, adult male Sprague-Dawley rats weighing 200-300g were obtained from Charles River Laboratories (Wilmington, Mass.), bearing a 23-gauge stainless steel cannula placed into the right lateral ventricle. Rats were housed individually and maintained on a 12 h light-dark cycle (6:00 am-6:00 pm light) with free access to tap water and rat chaw (PROLAB RMH 2500, containing 23.0% protein, 4.5% fat, gross energy 4.5 kcal/g. PMI nutrition international, LLC. Brentwood, Mo.). Prior to all studies, rats were handled and habituated for 7 days, and 10 μl of artificial cerebrospinal fluid (ACSF: NaCl 124, KCl 5, CaCl2 2.4 MgSO4 2, KH2PO4 1.25, NaHCO3 26 and glucose 10, in mM) was injected through the cannula to minimize stress effects at the time of the experiment. Cannula placement was confirmed in all animals by evaluating the response to 50 ng of angiotensin II. Only animals drinking more than 5 ml of water in 1 h were used in feeding studies.
# rats [2] = assay: Motor activity in rats, Example VI; type: in vivo, rat; settings: 10 nM i.c.v.
# Description: Sprague Dawley rats were randomly divided into two groups (Group I and Group II) of eight (8) rats each. The rats in Group I (n=8) received 0.9% saline by i.c.v. injection. The rats in Group II (n−8) received 10 nM TPI 1361-17 (Formula IV) by i.c.v. injection. […] Once each day thereafter, for a total of ______ days, the rats were taken into a test room, allowed to acclimatize for ______ minutes, then placed in four identical chambers (43 cm×43 cm×30.5 cm) that were connected to a common interface and computer (MED Associates, Inc., St. Albans, Vt.). Horizontal movement of the rats was monitored by 16 photobeams per side evenly spaced along each wall of two adjacent sides of each test chamber.
# rats [3] = assay: Conditioned place aversion (CPA), Example VII; type: in vivo, rat; settings: 10 nmole i.c.v. on conditioning days 2,3; test day 4; listed as TPI
# Description: Rats were randomly divided into two (2) groups of eight (8) rats each (Groups I and II). Testing was performed in four identical place-conditioning chambers (43×43×30.5 cm) connected to a common interface and computer (MED Associates, Inc., St. Albans, Vt.). Test chambers had two equal compartments, each with unique sensory cues. One compartment had black and white striped walls, a stainless-steel wire mesh floor (0.16-cm wire with 1.27-cm openings), corncob bedding, and lemon-scented water applied to the walls immediately before each test. The other compartment had white walls with black dots, stainless-steel grid floor (0.48-cm rods placed 1.6 cm apart), wood-chip bedding, and banana-scented water applied to the walls. The two compartments were separated by a middle wall with a black guillotine door in the center. All rats were weighed and acclimated to the test room for 20 min each day before being placed into the apparatus.
# The CPA test consisted of three phases. During the preconditioning phase (day 1), the animals were placed into the chamber for 15 min. During the conditioning phase (day 2,3), animals were injected i.c.v with either 0 (Group I—n=8) or 10 nmole (Group 2—n=8) of TPI and confined to one side for 20 min. […] The activity of the animals was monitored for 15 min.
# Sequence of rat MCH1R (P97639 whole entry): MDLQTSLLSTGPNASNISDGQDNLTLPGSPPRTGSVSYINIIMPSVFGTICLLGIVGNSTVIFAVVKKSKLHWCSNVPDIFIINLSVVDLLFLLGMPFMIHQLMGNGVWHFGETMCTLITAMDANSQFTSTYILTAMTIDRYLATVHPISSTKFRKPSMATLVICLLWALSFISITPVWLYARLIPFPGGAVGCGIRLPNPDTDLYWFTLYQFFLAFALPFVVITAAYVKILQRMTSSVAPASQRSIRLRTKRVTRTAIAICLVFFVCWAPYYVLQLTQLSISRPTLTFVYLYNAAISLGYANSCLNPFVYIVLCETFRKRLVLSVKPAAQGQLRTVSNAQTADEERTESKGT
compound,measurement,setting,value
"C[C@@H](CNCc1ccccc1)N1C[C@H](CCCNC(=N)N)N(CCc2cccc(F)c2)C1=S [TPI 1361-17, N-(3-{(4S)-1-[(1S)-2-(benzylamino)-1-methylethyl]-3-[2-(3-fluorophenyl)ethyl]-2-thioxoimidazolidin-4-yl}propyl)guanidine]",Displacement of [125I] MCH binding to rat MCH1R,rat MCH1R,completely displaced
same,IC50,"rat MCH1R; mean ±S.E.M., 0.1 nM radioligand, read-out: IC50 for displacement of [125I] MCH binding",140 ± 34.6 nM
same,Selectivity for MCH1R compared with neuropeptide Y2,neuropeptide Y2,"more than 1,000 fold"
same,MCH-induced food intake at the low dose,"rats [1]; 1 nmol icv with 2 nmol MCH, reversed over the next two hours",decreased MCH-induced food intake for 1 h and 2h
same,Suppression of cumulative MCH-induced food intake,"rats [1]; 5 nmol icv with 2 nmol MCH, at 4h",75%
same,"Reduction of MCH-induced food intake, maximal","rats [1]; dose dependent, icv, SD rats, beginning of light phase",up to 75%
same,Duration of the effect on MCH-induced food intake,rats [1]; icv,over 4 h
same,"Motor activity versus control (distance traveled, time resting, time ambulatory, ambulatory counts, time stereotypic, stereotypic counts)",rats [2],no significant differences
same,Conditioned place aversion,rats [3],did not cause conditioned place aversion; also recorded: lack of conditioned place aversion
